Read-outs that look alike come from different tables or passages of the source.
Experiments:
[1] = target: T1, human androgen receptor (hAR) (Homo sapiens, UniProt P10275); assay: Functional response test: hAR transactivation (luciferase reporter) in HALP2 cells; assay type: cell-based; settings: for EC50: agonism, HALP2 cells (HeLa, hAR + ARE-luciferase), 20 hours at 37° C.
T1 sequence (P10275 1-920): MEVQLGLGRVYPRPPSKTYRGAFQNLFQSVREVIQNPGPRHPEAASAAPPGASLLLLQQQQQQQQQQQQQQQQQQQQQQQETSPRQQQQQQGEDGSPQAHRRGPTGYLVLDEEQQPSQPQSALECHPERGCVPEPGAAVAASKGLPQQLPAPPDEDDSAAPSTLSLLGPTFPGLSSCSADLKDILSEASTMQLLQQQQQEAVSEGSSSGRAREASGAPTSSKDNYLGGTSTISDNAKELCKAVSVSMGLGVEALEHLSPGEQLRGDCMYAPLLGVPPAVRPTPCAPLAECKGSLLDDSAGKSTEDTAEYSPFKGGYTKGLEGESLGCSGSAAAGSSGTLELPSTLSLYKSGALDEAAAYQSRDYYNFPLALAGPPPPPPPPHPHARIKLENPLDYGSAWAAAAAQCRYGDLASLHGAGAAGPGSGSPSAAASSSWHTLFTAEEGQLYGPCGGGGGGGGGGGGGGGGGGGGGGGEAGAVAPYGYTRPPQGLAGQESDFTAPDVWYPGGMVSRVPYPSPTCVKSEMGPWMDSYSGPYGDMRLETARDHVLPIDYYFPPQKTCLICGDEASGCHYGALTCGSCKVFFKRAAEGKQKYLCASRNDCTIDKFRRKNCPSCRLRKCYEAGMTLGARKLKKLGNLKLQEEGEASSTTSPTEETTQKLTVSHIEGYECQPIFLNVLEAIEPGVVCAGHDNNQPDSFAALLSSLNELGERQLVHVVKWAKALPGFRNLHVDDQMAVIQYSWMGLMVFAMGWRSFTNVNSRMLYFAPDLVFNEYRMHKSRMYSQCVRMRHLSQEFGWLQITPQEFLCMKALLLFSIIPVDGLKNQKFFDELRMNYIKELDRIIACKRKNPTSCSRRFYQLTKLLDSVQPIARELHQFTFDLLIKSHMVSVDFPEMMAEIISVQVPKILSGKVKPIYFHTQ
In short: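 HALP2 cells are HeLa cells stably transfected with CMV-driven hAR and a probasin ARE-luciferase reporter. They were seeded 24 h ahead, then exposed to compounds for 20 hours at 37° C in phenol red-free DMEM with 5% desteroided serum. Luciferase luminescence was measured after lysis; for antagonist mode, compounds were tested against increasing DHT concentrations.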

[2] = tested on: castrated immature young rats; assay: Adapted model of Hershberger's test (levator ani and ventral prostate weight); assay type: in vivo, Sprague Dawley rats; settings: Rattus norvegicus, po, 96 h
Experimental: The selective modulating activity of the androgen receptor was tested in a model of castrated immature young rats. This model, which is widely recognised for evaluating the anabolic effects of androgen compounds on the muscles and on the genitalia, has been described by Hershberger et al. 1953 Proc. Soc. Expt. Biol. Med. 83:175.
The method is based on the measurement of the well-known effects of androgens on the growth of the muscles and the accessory male sex organs in animals, and also in men. The consequences of castration appear in the form of a rapid involution and atrophy of the prostate and the seminal vesicles and of the anus-lifting muscle (levator ani). This effect may be completely compensated by an exogeneous administration of androgen, in particular of testosterone. The model is thus used to determine the capacity of the tested molecules to maintain the weight of the accessory sex and muscle organs in immature castrated rats, and therefore their androgenic efficacy.
Immature young Sprague Dawley rats (4 to 5 weeks old) weighing approximately 140-160 g (Charles River, Les Oncins, FRANCE) were distributed randomly in various groups and were kept in an environment at 22±2° C. with an alternating day/night cycle of 12 hours and ad libitum access to food and drink.
On day 0, that is, seven days before commencement of the first treatment, the rats were weighed individually then anaesthetised with an intraperitoneal dose of Ketamine/xylazine (85/15 mg/kg, approximately 2 ml/kg). Each animal was then placed on a sterile field and the abdomen and the scrotum were disinfected with Betadine and 70% alcohol. In the case of the orchidectomised control animals (ORX), the testicles were removed via an incision in the middle of the scrotum. A sterile suture was then made to ligature the supra-testicular portion of the tissue prior to surgical section of each testicle. The groups of animals to be treated by the tested compounds were operated on in an identical manner. In the case of the intact control animals (SHAM), the testicles were similarly extracted and reintroduced delicately to their original location. The site of surgical intervention was then sutured using sterile suture thread, and the site was disinfected again by application of Betadine. Each animal was then kept under a sterile pad until it awoke, before being returned to its cage. The animals were kept in an environment at 22±2° C. with an alternating day/night cycle of 12 hours and ad libitum access to food and drink. The animals were treated with the molecules to be tested from post-surgery day 7 and until day 10 preceding sacrifice (day 11).
The rats were split into groups and treated daily from day 7 to day 10 under the conditions defined below: • 1. SHAM control group: Vehicle (0.5% aqueous methyl cellulose) administered per os. • 2. ORX control group: Vehicle (0.5% aqueous methyl cellulose) administered per os. • 3. Treated ORX group: The tested compounds were administered individually per os in suspension in the vehicle described above, in a dose of 30 mg/kg.
After treatment for 4 successive days, the animals were decapitated using a guillotine. The levator ani and the ventral prostate were removed and weighed individually. For comparing inter-experimental data, the weight of each organ was standardised and expressed in milligrammes per 100 g of the weight of the animal (W). For each organ, the average of the standardised weights of the ORX control group was fixed by definition at 0% and the average of the standardised weights of the SHAM control group was fixed by definition at 100%. The efficacy of each product was expressed as a percentage and calculated using the following formula: (Wtreated−WORX)/(WSHAM−WORX)×100 A subsequent ANOVA test was used for statistical analysis to identify the differences between groups.

[3] = antagonism, concentration which increases the EC50 of the DHT by a factor of 2, Schild regression, HALP2 cells
[4] = read-out: anabolic protection efficacy with regard to levator ani
[5] = read-out: androgenic efficacy with regard to the prostate

Compound | melting point | KSchild (nM) potency [1] | other results
CN1C(=O)N(c2ccc(Cl)c(Cl)c2)C(=O)C1(CF)c1ccc(O)cc1 (centres unmarked) [Example 184, 1-(3,4-dichlorophenyl)-4-fluoromethyl-4-(4-hydroxyphenyl)-3-methylimidazolidine-2,5-dione] | 167.2 °C | – | EC50 [1]: 4.9 nM; KSchild (nM) potency [1, 3]: 2.8 nM
C#CCC1(c2ccc(O)cc2)C(=O)N(c2ccc(C#N)c(C(F)(F)F)c2)C(=O)N1C (centres unmarked) [Example 177.3, 4-[2,5-dioxo-4-(4-hydroxyphenyl)-3-methyl-4-(2-propynyl)imidazolidin-1-yl]-2-trifluoromethylbenzonitrile] | 122 °C | 15 nM | –
C#CCN1C(=S)N(c2ccc(C#N)c(C(F)(F)F)c2)C(=O)C1(C)c1ccc(O)cc1 (centres unmarked) [Example 43, 4-[4-(4-hydroxyphenyl)-4-methyl-5-oxo-3-(2-propynyl)-2-thioxoimidazolidin-1-yl]-2-trifluoromethylbenzonitrile] | 169 °C | 0.49 nM | –
CCN1C(=O)N(c2ccc(C#N)c(C(F)(F)F)c2)C(=O)C1(C)c1ccc(O)cc1 (centres unmarked) [Example 224, 4-[2,5-dioxo-3-ethyl-4-(4-hydroxyphenyl)-4-methylimidazolidin-1-yl]-2-trifluoromethylbenzonitrile] | 165 °C | – | KSchild (nM) potency [1, 3]: 2 nM
CCCN1C(=O)N(c2ccc(C#N)c(C(F)(F)F)c2)C(=O)C1(C)c1ccc(O)cc1 (centres unmarked) [Example 225, 4-[2,5-dioxo-4-(4-hydroxyphenyl)-4-methyl-3-propylimidazolidin-1-yl]-2-trifluoromethylbenzonitrile] | 125 °C | 2.83 nM | –
CN1C(=O)N(c2ccc(Cl)c(Cl)c2)C(=O)C1(CO)c1ccc(O)cc1 (centres unmarked) [Example 175, 1-(3,4-dichlorophenyl)-4-hydroxymethyl-4-(4-hydroxyphenyl)-3-methylimidazolidine-2,5-dione] | 215.6 °C | – | inhibition in vivo at 30 mg/kg ([2]; ORX rats, 30 mg/kg per os, 4 successive days, ORX = 0%, SHAM = 100%, read-out: anabolic protection efficacy with regard to levator ani): 50 to 140%; inhibition in vivo at 30 mg/kg ([2]; ORX rats, 30 mg/kg per os, 4 successive days, ventral prostate, ORX = 0%, SHAM = 100%, read-out: androgenic efficacy with regard to the prostate): 5 to 70%; EC50 [1]: 1.38 nM; KSchild (nM) potency [1, 3]: 0.37 nM
COc1cc(N2C(=O)N(C)[C@](C)(c3ccc(O)cc3)C2=O)ccc1C#N [Example 156.2, (R)-4-[3,4-dimethyl-2,5-dioxo-4-(4-hydroxyphenyl)imidazolidin-1-yl]-2-methoxybenzonitrile] | 100 °C | 1.5 nM | inhibition in vivo at 30 mg/kg [2, 4]: 50 to 140%; inhibition in vivo at 30 mg/kg [2, 5]: 5 to 70%
CN1C(=O)N(c2ccc(C#N)c(C(F)(F)F)c2)C(=O)C1c1ccc(O)cc1 (centres unmarked) [Example 2, 4-[2,5-dioxo-4-(4-hydroxyphenyl)-3-methyl-imidazolidin-1-yl]-2-trifluoromethylbenzonitrile] | 157.4 °C | 9.65 nM | –
COCN1C(=O)N(c2ccc(C#N)c(OC)c2)C(=O)C1(C)c1ccc(O)cc1 (centres unmarked) [Example 223.1, 4-[4-(4-hydroxyphenyl)-3-methoxymethyl-4-methyl-2,5-dioxoimidazolidin-1-yl]-2-methoxybenzonitrile] | 141 °C | 4 nM | –
CCOCN1C(=O)N(c2ccc(C#N)c(C(F)(F)F)c2)C(=O)C1(C)c1ccc(O)cc1 (centres unmarked) [Example 221, 4-[3-(ethoxymethyl)-4-(4-hydroxyphenyl)-4-methyl-2,5-dioxoimidazolidin-1-yl]-2-trifluoromethylbenzonitrile] | 143 °C | 5.66 nM | –
COCN1C(=O)N(c2ccc(C#N)c(C(F)(F)F)c2)C(=O)[C@@]1(C)c1ccc(O)cc1 [Example 222.1, (R)-4-[2,5-dioxo-4-(4-hydroxyphenyl)-3-methoxymethyl-4-methylimidazolidin-1-yl]-2-trifluoromethylbenzonitrile] | 97 °C | 4 nM | inhibition in vivo at 30 mg/kg [2, 4]: 50 to 140%; inhibition in vivo at 30 mg/kg [2, 5]: 5 to 70%
CC1(c2ccc(O)cc2)C(=O)N(c2ccc(C#N)c(C(F)(F)F)c2)C(=O)N1CCF (centres unmarked) [Example 226, 4-[2,5-dioxo-3-(2-fluoroethyl)-4-(4-hydroxyphenyl)-4-methylimidazolidin-1-yl]-2-trifluoromethylbenzonitrile] | 157 °C | 2.45 nM | –
